# Key:
# Streptococcus agalactiae [1] = assay: Number of strains detected as a function of the concentration of α-glucosidase substrate; assay type: cell-based; details: positive when I≧0.6, 8 strains
# Excerpt: The above protocol was repeated, with the exception that the concentration of enzymatic substrate was varied.
# Table 2 below gives the number of strains detected (considered to be positive when I≧0.6) as a function of the concentration of substrate.
# Streptococcus agalactiae [2] = assay: Detection of Streptococcus agalactiae strains on reaction media containing an α-glucosidase enzymatic substrate; assay type: cell-based; details: substrate 0.1 g/l; for intensity (I) of coloration: arbitrary scale 0 to 4
# Procedure: The reaction media were prepared by mixing heart-brain extract (4.84 g/l; Solabia), meat infusion (1.96 g/l; Solabia), biothione (1 g/l; Solabia), biotrypcase (7.2 g/l; Solabia), sodium carbonate (0.3 g/l; VWR), sodium pyruvate (2 g/l; Fluka), HEPES buffer (0.4 g/l; Sigma), lactalbumin peptone (2 g/l; DMV), glucose (1 g/l; Merck), American agar (2 g/l; Sobigel) and European agar (12 g/l; Roko).
# The media were then poured into a Petri dish for subsequent inoculation with bacterial strains.
# Eight Streptococcus agalactiae strains derived from the applicant's collection, suspended in physiological saline, were inoculated so as to give isolated colonies on each of the media. The dishes were then incubated at 37° C. for 48 hours. The colonies formed are examined visually after 18, 24 and more than 40 hours of incubation. The coloration of these colonies, the growth and also the intensity of this coloration were noted.
# The results are given in table 1 below and are expressed: • in terms of growth (G) with the size being indicated in mm, • in terms of intensity (1) of coloration based on an arbitrary scale ranging from 0 to 4, 0 corresponding to an absence of activity and 4 corresponding to the presence of a very intense coloration, • in terms of color (Co) with T=turquoise, R=pink or red, Gr=green, Mg=magenta, • according to the incubation time in hours (T).
# [3] = substrate 100 mg/l, incubation 24 h
# [4] = substrate 100 mg/l, incubation 48 h
# [5] = substrate 200 mg/l, incubation 24 h
# [6] = substrate 200 mg/l, incubation 48 h
# [7] = substrate 300 mg/l, incubation 24 h
# [8] = substrate 300 mg/l, incubation 48 h
# [9] = strain 0008200, 18 h incubation
# [10] = strain 0008200, 24 h incubation
# [11] = strain 0008200, >40 h incubation
# [12] = strain 0008206, 18 h incubation
# [13] = strain 0008206, 24 h incubation
# [14] = strain 0008206, >40 h incubation
# [15] = strain 0101060, 18 h incubation
# [16] = strain 0101060, 24 h incubation
# [17] = strain 0101060, >40 h incubation
# [18] = strain 7611003, 18 h incubation
# [19] = strain 7611003, 24 h incubation
# [20] = strain 7611003, >40 h incubation
# [21] = strain 7701031, 18 h incubation
# [22] = strain 7701031, 24 h incubation
# [23] = strain 7701031, >40 h incubation
# [24] = strain 7702055, 18 h incubation
# [25] = strain 7702055, 24 h incubation
# [26] = strain 7702055, >40 h incubation
# [27] = strain 8709013, 18 h incubation
# [28] = strain 8709013, 24 h incubation
# [29] = strain 8709013, >40 h incubation
# [30] = strain 8904053, 18 h incubation
# [31] = strain 8904053, 24 h incubation
# [32] = strain 8904053, >40 h incubation
smiles,measurement,setting,value
"OC[C@H]1O[C@H](Oc2c[nH]c3cc(Cl)ccc23)[C@H](O)[C@@H](O)[C@@H]1O [Rose-alpha-Glu, 6-chloro-3-indolyl-α-D-glucopyranoside]",number of strains detected,Streptococcus agalactiae [1]; [3],1/8
same,number of strains detected,Streptococcus agalactiae [1]; [4],7/8
same,number of strains detected,Streptococcus agalactiae [1]; [5],3/8
same,number of strains detected,Streptococcus agalactiae [1]; [6],8/8
same,number of strains detected,Streptococcus agalactiae [1]; [7],6/8
same,number of strains detected,Streptococcus agalactiae [1]; [8],8/8
same,intensity (I) of coloration,"Streptococcus agalactiae [2]; strain 0008200, 18 h",0.1
same,"growth (G), size",Streptococcus agalactiae [2]; [9],0.5 mm
same,intensity (I) of coloration,"Streptococcus agalactiae [2]; strain 0008200, 24 h",0.3
same,"growth (G), size",Streptococcus agalactiae [2]; [10],0.5 mm
same,intensity (I) of coloration,"Streptococcus agalactiae [2]; strain 0008200, >40 h",0.5
same,"growth (G), size",Streptococcus agalactiae [2]; [11],0.5 mm
same,intensity (I) of coloration,"Streptococcus agalactiae [2]; strain 0008206, 18 h",0.1
same,"growth (G), size",Streptococcus agalactiae [2]; [12],0.7 mm
same,intensity (I) of coloration,"Streptococcus agalactiae [2]; strain 0008206, 24 h",0.3
same,"growth (G), size",Streptococcus agalactiae [2]; [13],0.8 mm
same,intensity (I) of coloration,"Streptococcus agalactiae [2]; strain 0008206, >40 h",0.8
same,"growth (G), size",Streptococcus agalactiae [2]; [14],1.2 mm
same,intensity (I) of coloration,"Streptococcus agalactiae [2]; strain 0101060, 18 h",0.3
same,"growth (G), size",Streptococcus agalactiae [2]; [15],0.5 mm
same,intensity (I) of coloration,"Streptococcus agalactiae [2]; strain 0101060, 24 h",0.6
same,"growth (G), size",Streptococcus agalactiae [2]; [16],0.7 mm
same,intensity (I) of coloration,"Streptococcus agalactiae [2]; strain 0101060, >40 h",2.3
same,"growth (G), size",Streptococcus agalactiae [2]; [17],0.8 mm
same,intensity (I) of coloration,"Streptococcus agalactiae [2]; strain 7611003, 18 h",0.3
same,"growth (G), size",Streptococcus agalactiae [2]; [18],1 mm
same,intensity (I) of coloration,"Streptococcus agalactiae [2]; strain 7611003, 24 h",0.6
same,"growth (G), size",Streptococcus agalactiae [2]; [19],1.3 mm
same,intensity (I) of coloration,"Streptococcus agalactiae [2]; strain 7611003, >40 h",1.3
same,"growth (G), size",Streptococcus agalactiae [2]; [20],1.7 mm
same,"growth (G), size",Streptococcus agalactiae [2]; [21],0.5 mm
same,"growth (G), size",Streptococcus agalactiae [2]; [22],0.7 mm
same,intensity (I) of coloration,"Streptococcus agalactiae [2]; strain 7701031, >40 h",0.5
same,"growth (G), size",Streptococcus agalactiae [2]; [23],1.2 mm
same,intensity (I) of coloration,"Streptococcus agalactiae [2]; strain 7702055, 18 h",0.1
same,"growth (G), size",Streptococcus agalactiae [2]; [24],0.7 mm
same,intensity (I) of coloration,"Streptococcus agalactiae [2]; strain 7702055, 24 h",0.1
same,"growth (G), size",Streptococcus agalactiae [2]; [25],1 mm
same,intensity (I) of coloration,"Streptococcus agalactiae [2]; strain 7702055, >40 h",1
same,"growth (G), size",Streptococcus agalactiae [2]; [26],1.7 mm
same,"growth (G), size",Streptococcus agalactiae [2]; [27],0.4 mm
same,"growth (G), size",Streptococcus agalactiae [2]; [28],0.5 mm
same,intensity (I) of coloration,"Streptococcus agalactiae [2]; strain 8709013, >40 h",0.5
same,"growth (G), size",Streptococcus agalactiae [2]; [29],0.7 mm
same,intensity (I) of coloration,"Streptococcus agalactiae [2]; strain 8904053, 18 h",0.1
same,"growth (G), size",Streptococcus agalactiae [2]; [30],0.7 mm
same,intensity (I) of coloration,"Streptococcus agalactiae [2]; strain 8904053, 24 h",0.3
same,"growth (G), size",Streptococcus agalactiae [2]; [31],0.7 mm
same,intensity (I) of coloration,"Streptococcus agalactiae [2]; strain 8904053, >40 h",1
same,"growth (G), size",Streptococcus agalactiae [2]; [32],0.8 mm
"OC[C@H]1O[C@H](Oc2c[nH]c3cc(Br)ccc23)[C@H](O)[C@@H](O)[C@@H]1O [RedA-alpha-Glu, 6-bromo-3-indolyl-α-D-glucopyranoside]",number of strains detected,Streptococcus agalactiae [1]; [3],1/8
same,number of strains detected,Streptococcus agalactiae [1]; [4],7/8
same,number of strains detected,Streptococcus agalactiae [1]; [5],5/8
same,number of strains detected,Streptococcus agalactiae [1]; [6],8/8
same,number of strains detected,Streptococcus agalactiae [1]; [7],6/8
same,number of strains detected,Streptococcus agalactiae [1]; [8],8/8
same,intensity (I) of coloration,"Streptococcus agalactiae [2]; strain 0008200, 18 h",0.1
same,"growth (G), size",Streptococcus agalactiae [2]; [9],0.7 mm
same,intensity (I) of coloration,"Streptococcus agalactiae [2]; strain 0008200, 24 h",0.3
same,"growth (G), size",Streptococcus agalactiae [2]; [10],0.7 mm
same,intensity (I) of coloration,"Streptococcus agalactiae [2]; strain 0008200, >40 h",1.7
same,"growth (G), size",Streptococcus agalactiae [2]; [11],0.7 mm
same,intensity (I) of coloration,"Streptococcus agalactiae [2]; strain 0008206, 18 h",0.3
same,"growth (G), size",Streptococcus agalactiae [2]; [12],0.7 mm
same,intensity (I) of coloration,"Streptococcus agalactiae [2]; strain 0008206, 24 h",0.5
same,"growth (G), size",Streptococcus agalactiae [2]; [13],0.8 mm
same,intensity (I) of coloration,"Streptococcus agalactiae [2]; strain 0008206, >40 h",2
same,"growth (G), size",Streptococcus agalactiae [2]; [14],1.2 mm
same,intensity (I) of coloration,"Streptococcus agalactiae [2]; strain 0101060, 18 h",0.5
same,"growth (G), size",Streptococcus agalactiae [2]; [15],0.4 mm
same,intensity (I) of coloration,"Streptococcus agalactiae [2]; strain 0101060, 24 h",0.8
same,"growth (G), size",Streptococcus agalactiae [2]; [16],0.5 mm
same,intensity (I) of coloration,"Streptococcus agalactiae [2]; strain 0101060, >40 h",3
same,"growth (G), size",Streptococcus agalactiae [2]; [17],0.7 mm
same,intensity (I) of coloration,"Streptococcus agalactiae [2]; strain 7611003, 18 h",0.5
same,"growth (G), size",Streptococcus agalactiae [2]; [18],1 mm
same,intensity (I) of coloration,"Streptococcus agalactiae [2]; strain 7611003, 24 h",0.8
same,"growth (G), size",Streptococcus agalactiae [2]; [19],1 mm
same,intensity (I) of coloration,"Streptococcus agalactiae [2]; strain 7611003, >40 h",2
same,"growth (G), size",Streptococcus agalactiae [2]; [20],1.3 mm
same,"growth (G), size",Streptococcus agalactiae [2]; [21],0.5 mm
same,"growth (G), size",Streptococcus agalactiae [2]; [22],0.7 mm
same,intensity (I) of coloration,"Streptococcus agalactiae [2]; strain 7701031, >40 h",0.5
same,"growth (G), size",Streptococcus agalactiae [2]; [23],1.2 mm
same,"growth (G), size",Streptococcus agalactiae [2]; [24],0.7 mm
same,intensity (I) of coloration,"Streptococcus agalactiae [2]; strain 7702055, 24 h",0.3
same,"growth (G), size",Streptococcus agalactiae [2]; [25],1 mm
same,intensity (I) of coloration,"Streptococcus agalactiae [2]; strain 7702055, >40 h",2.3
same,"growth (G), size",Streptococcus agalactiae [2]; [26],1.7 mm
same,"growth (G), size",Streptococcus agalactiae [2]; [27],0.5 mm
same,"growth (G), size",Streptococcus agalactiae [2]; [28],0.5 mm
same,intensity (I) of coloration,"Streptococcus agalactiae [2]; strain 8709013, >40 h",0.8
same,"growth (G), size",Streptococcus agalactiae [2]; [29],0.7 mm
same,"growth (G), size",Streptococcus agalactiae [2]; [30],0.7 mm
same,intensity (I) of coloration,"Streptococcus agalactiae [2]; strain 8904053, 24 h",0.3
same,"growth (G), size",Streptococcus agalactiae [2]; [31],0.7 mm
same,intensity (I) of coloration,"Streptococcus agalactiae [2]; strain 8904053, >40 h",1.7
same,"growth (G), size",Streptococcus agalactiae [2]; [32],0.8 mm

# — patent US20070292908A1, “Method for Detecting Streptococcus Agalactiae Using Alpha-Glucosidase Activity” (BIOMERIEUX, priority 2004, published 2007)
